{
  "source": "patent US20230372361A1",
  "about": "“USE OF OXYGENATED CHOLESTEROL SULFATES FOR TREATING INFLAMMATORY CONDITIONS” (Durect Corporation, priority 2020, published 2023)",
  "key": {"[1]": {"test_system": "Huh-7 cells", "assay": "Global methylation, LINE-1 assay (pyrosequencing)", "type": "cell-based, human", "settings": "HG media, 25HC3S for 4 hours", "procedure": "Each sample, 2 was sent to […], Inc. (Hopkinton, MA) for analysis of global methylation bisulfite sequencing. The same samples, 6 μg, were sent to Novogene Co., Ltd (Tianjin, China) for analysis of whole genome bisulfite sequencing (WGBS). Total RNA was isolated using the Promega SV total RNA isolation system (Madison, WI) with DNase treatment. […] Real-time RT-PCR was performed using SYBR Green as the indicator on ABI 7500 Fast Real-Time PCR System (Applied Biosystems, Foster City, CA). Amplifications of β-actin or GAPDH were used as internal controls. Relative messenger RNA (mRNA) expression was quantified with the comparative cycle threshold (Ct) method using the primer set shown in Table 1.1 and was expressed as 2^-ΔΔct. […] PCR reaction and product purification were performed as per the manufacturer's protocol (GE Healthcare Life Sciences). The PCR products, 10 μl, were sequenced by Pyrosequencing on the PSQ96 HS System following the manufacturer's instructions (Pyrosequencing, Qiagen). The methylation status of each CpG site was determined individually as an artificial C/T SNP using QCpG software (Pyrosequencing, Qiagen). The methylation level at each CpG site was calculated as the percentage of the methylated alleles divided by the sum of all methylated and unmethylated alleles. The mean methylation level was calculated using methylation levels of all measured CpG sites within the targeted region of each gene. Each experiment included non-CpG cytosines as internal controls to detect incomplete bisulfite conversion of the input DNA. In addition, a series of unmethylated and methylated DNA were included as controls in each PCR assay. Furthermore, PCR bias testing was performed by mixing unmethylated control DNA with in vitro methylated DNA at different ratios (0%, 5%, 10%, 25%, 50%, 75%, and 100%), followed by bisulfite modification, PCR, and Pyro-sequencing analysis."}, "[2]": {"test_system": "Huh-7 cells", "assay": "Whole genome bisulfite sequencing (WGBS), promoter 5mCpG demethylation", "type": "cell-based, human", "settings": "25 μM, 4 hours", "procedure": "Huh-7 and HepG-2 cells were cultured in DMEM media supplemented with 10% heat-inactivated fetal bovine serum (FBS), high glucose (HG, 4.5 g/L) at 37° C. in a humidified atmosphere of 5% CO2.\nEach sample, 2 was sent to EpigenDx, Inc. (Hopkinton, MA) for analysis of global methylation bisulfite sequencing. The same samples, 6 μg, were sent to Novogene Co., Ltd (Tianjin, China) for analysis of whole genome bisulfite sequencing (WGBS). Total RNA was isolated using the Promega SV total RNA isolation system (Madison, WI) with DNase treatment. Each sample, 2 was used for the first-strand cDNA synthesis as recommended by the manufacturer (Invitrogen, Carlsbad, CA). […] Relative messenger RNA (mRNA) expression was quantified with the comparative cycle threshold (Ct) method using the primer set shown in Table 1.1 and was expressed as 2^−ΔΔct.\nAnalysis of Whole Human Genome Bisulfite Sequencing (WGBS) Each sample, 5.2 μg of genomic DNA spiked with 26 ng lambda DNA, was fragmented by sonication to 200-300 bp with Covaris S220, followed by end repair and adenylation. […] These DNA fragments were treated twice with bisulfite using EZ DNA Methylation-Gold™ Kit (Zymo Research) before the resulting single-strand DNA fragments were PCR amplified using KAPA HiFi Hot Start Uracil and Ready Mix (2×). […]"}},
  "data": [
    {"smiles": "C[C@H](CCCC(C)(C)O)[C@H]1CC[C@H]2[C@@H]3CC=C4C[C@@H](OS(=O)(=O)O)CC[C@]4(C)[C@H]3CC[C@]12C", "note": "[25HC3S, 25-hydroxycholesterol-3-sulfate]", "values": [
      {"measurement": "Reduction of methylation (demethylation) at LINE-1 Pos1", "setting": "[1]", "value": "−5", "unit": "%"},
      {"measurement": "Reduction of methylation (demethylation) at LINE-1 Pos3", "setting": "[1]", "value": "−10", "unit": "%"},
      {"measurement": "Reduction of methylation (demethylation) at LINE-1 Pos 4", "setting": "[1]", "value": "−5.6", "unit": "%"},
      {"measurement": "hypomethylation levels across genomic functional regions versus vehicle", "setting": "[2]", "value": "significantly higher hypomethylation levels than vehicle"}
    ]}
  ]
}
